Measurements as given in patent US9695193B2, “Inhibitors of Plasmodium falciparum equilibrative nucleoside transporter type I as anti-parasitic compounds” (The Trustees of Columbia University in the City of New York, priority 2013, dated 2017).
Like-named read-outs stand apart in the source and are kept apart here.

Legend:
Assay type in all cases: cell-based
Dd2 parasite = assay: Plasmodium falciparum parasite viability assay (Dd2); details: Dd2, high purine media, Mean ± SD
PfENT1 = target: T1, PfENT1 (Plasmodium falciparum, UniProt Q8IDM6); details: primary HTS, compounds at 10 μM, 125 μM 5-FUrd
T1 construct: expressed in transfected cells; host or cells: fui1Δ yeast (Saccharomyces cerevisiae), co-expressing GFP
Outline: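 fui1Δ yeast expressing PfENT1 and GFP were grown with 125 μM 5-fluorouridine, so growth reflects blocked 5-FUrd uptake. Compounds were screened at 10 μM. Growth scored by OD620 turbidity and GFP fluorescence, and hits had to be positive on both.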

PfENT1-CO = target: T2, PfENT1-CO (Plasmodium falciparum, UniProt Q8IDM6); assay: [3H]adenosine uptake into PfENT1-CO expressing ade2Δ yeast; details: uptake over 15 minutes; Mean ± SD, N ≧ 3
T2 construct: expressed in transfected cells; host or cells: purine auxotrophic ade2Δ yeast (Saccharomyces cerevisiae)
Source text: FIGS. 4A-C are graphs showing the validation of selected compounds identified as Plasmodium falciparum Equilibrative Nucleoside Transporter Type I (PfENT1) inhibitors in the high-throughput screen (HTS). […] The means values from single experiments are shown. In the key, CQ=chloroquine, and the Table 1 compounds are referenced as symbols indicating HTS rank #1-7, 13, and 19.
(§1) The means values from single experiments are shown. In the key, CQ=chloroquine, and the Table 1 compounds are referenced as symbols indicating HTS rank #1-7, 13, and 19. In this assay, inhibitors of PfENT1 […] yeast growth (FIGS. 4B-C).

PfENT1-HA-CO = target: T3, PfENT1-HA-CO (Plasmodium falciparum, UniProt Q8IDM6); assay: Concentration-dependent rescue of PfENT1-HA-CO-expressing fui1Δ yeast from 5-FUrd induced death
T3 construct: HA; expressed in transfected cells; host or cells: fui1Δ yeast (Saccharomyces cerevisiae)
Experimental: In the primary screen the compounds were tested at a concentration of 10 μM. Hits were identified by the growth of fui1Δ yeast expressing PfENT1 and Green Fluorescent Protein (GFP) in the presence of the cytotoxic nucleoside 5-fluorouridine (5-FUrd). 5-FUrd is transported by PfENT1. PfENT1 expressing fui1Δ yeast will only grow in the presence of 125 μM 5-FUrd if a PfENT1 inhibitor blocks the uptake of 5-FUrd into the yeast. Significant yeast growth in the HTS in 384 well plates was determined by two criteria: 1) turbidity as determined by the optical density at 620 nm (OD620) and 2) GFP fluorescence intensity. Positive responses were signal intensities greater than four standard deviations above the mean of the negative growth control wells. Hits had to be positive by both criteria. From the library screen, 171 chemical entities were identified as positive by both criteria (Table 2).
Of the 171 hits from the primary HTS, nine were chosen for more extensive validation using a series of secondary assays. These nine compounds included the top seven hits (HTS rank #1-7 as indicated in Tables 1 and 2), the first hit identified (compound HTS rank #19) and compound HTS rank #13, which was a unique chemical scaffold relative to the other 8 compounds. The secondary assays used to validate the nine selected hits include 1) repeat of the primary HTS using a series of compound concentrations to determine the concentration-response relationship for each compound, 2) testing in an alternative yeast-based assay in purine auxotrophic ade2Δ yeast expressing PfENT1 (described below, FIG. 1 and FIG. 4B), and 3) a Plasmodium falciparum cytotoxicity assay (described below, FIGS. 5A-B.). These assays allowed further confirmation the hits, determining the concentration-response relationships in the yeast-based assays and the concentration dependence of their ability to kill Plasmodium falciparum parasites during growth in in vitro culture. There was a roughly linear correlation between the compounds' IC50s measured in the two yeast-based assays. All nine compounds were tested in the P. falciparum cytotoxicity assay (FIGS. 5A-B).
as §1

[1] = system: P. falciparum parasites (3D7 strain); assay: Plasmodium falciparum cytotoxicity assay (3D7 strain, SYBR-Green); details: 72-96 hours, Mean ± SD
Experimental: Plasmodium falciparum Cytotoxicity Assay
P. falciparum parasites (3D7 strain-chloroquine sensitive) are grown in in vitro culture in human erythrocytes. Each well is inoculated with a low density of parasites in standard parasite growth media with supplemented hypoxanthine (10 or 367 μM). Increasing concentrations of drugs are added and parasites are allowed to grow for 72-96 hours in 5% CO2/5% O2/90% N2 gas at 37° C. At the end of the experiment, parasites are lysed, SYBR-Green dye in lysis solution is added and the fluorescence intensity is measured for each well.

[2] = system: P. falciparum 3D7 parasites; assay: [3H]adenosine uptake into trophozoite-stage P. falciparum 3D7 parasites; details: Plasmodium falciparum, uptake over 15 minutes, Mean ± SD, N ≧ 3
Source text: FIGS. 5A-E are graphs and images reflecting the inhibitory effects of selected PfENT1 inhibiting compounds with P. falciparum. FIGS. 5A-C are graphs illustrating the inhibitory effects of selected PfENT1 inhibiting compounds with P. falciparum.

[3] = 3D7, high purine media (hypoxanthine 367 μM), read-out: IC50 3D7 parasite viability-high purine media
[4] = 3D7, low purine media (hypoxanthine 10 μM), read-out: IC50 3D7 parasite viability-low purine media

T1 sequence (Q8IDM6 whole entry): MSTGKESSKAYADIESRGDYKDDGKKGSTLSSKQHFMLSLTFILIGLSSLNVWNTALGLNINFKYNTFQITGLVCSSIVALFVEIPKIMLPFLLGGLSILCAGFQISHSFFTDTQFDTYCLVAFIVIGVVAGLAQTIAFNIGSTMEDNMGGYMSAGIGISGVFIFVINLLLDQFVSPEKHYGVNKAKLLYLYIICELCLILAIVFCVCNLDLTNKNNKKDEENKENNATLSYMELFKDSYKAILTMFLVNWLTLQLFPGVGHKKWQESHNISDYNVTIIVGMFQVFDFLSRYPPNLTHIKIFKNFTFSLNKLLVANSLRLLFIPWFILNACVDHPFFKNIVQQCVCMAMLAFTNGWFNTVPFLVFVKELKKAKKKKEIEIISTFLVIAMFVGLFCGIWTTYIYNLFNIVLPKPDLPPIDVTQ
T3 sequence (Q8IDM6 whole entry): as above
T2 sequence (Q8IDM6 whole entry): as above

Row | Compound | Avg Normalized % maximal activity (PfENT1) [%] | further results
1 | COc1cc(COc2ccc3c(C)cc(=O)oc3c2)cc(OC)c1OC [HTS Rank #3, 4-methyl-7-[(3,4,5-trimethoxybenzyl)oxy]-2H-chromen-2-one] | 84.71 | IC50 (Dd2 parasite): 36.2 ± 6 µM; IC50 (PfENT1-CO): 0.0024 ± 0.0015 µM; IC50 (PfENT1-HA-CO): 2.3 ± 0.9 µM; IC50 [1, 3]: 41 ± 4.3 µM; IC50 [1, 4]: 19.2 ± 4.3 µM; IC50 [2]: 0.0064 ± 0.003 µM
2 | Cc1ccccc1/C=C/c1nc2ccccc2c(=O)[nH]1 [compound 13, 2-[2-(2-methylphenyl)vinyl]-4(3H)-quinazolinone] | 24.69 | IC50 (Dd2 parasite): 2.6 ± 0.2 µM; IC50 (PfENT1-HA-CO): 4.7 ± 2.9 µM; IC50 [1, 3]: 6.7 ± 0.5 µM; IC50 [1, 4]: 6.9 ± 0.4 µM; IC50 [2]: 0.0216 ± 0.0142 µM
3 | O=C(Nc1ccc(-c2nnc(-c3ccco3)o2)cc1)c1ccco1 [compound 4, N-{4-[5-(2-furyl)-1,3,4-oxadiazol-2-yl]phenyl}-2-furamide] | 74.03 | IC50 (Dd2 parasite): 15.3 ± 2.7 µM; IC50 (PfENT1-CO): 0.0137 ± 0.0075 µM; IC50 (PfENT1-HA-CO): 5.7 ± 0.8 µM; IC50 [1, 3]: 14.7 ± 1.9 µM; IC50 [1, 4]: 15 ± 1.5 µM; IC50 [2]: 0.0458 ± 0.0241 µM
4 | O=C(Nc1ccc(-c2nc3ncccc3o2)cc1)c1ccccc1Br [compound 2, 2-bromo-N-(4-[1,3]oxazolo [4,5-b]pyridin-2-ylphenyl)benzamide] | 91.94 | IC50 (Dd2 parasite): 52.4 ± 5.7 µM; IC50 (PfENT1-CO): 0.0101 ± 0.0084 µM; IC50 (PfENT1-HA-CO): 6 ± 1.7 µM; IC50 [1, 3]: 53.4 ± 11.1 µM; IC50 [1, 4]: 31.2 ± 7.7 µM; IC50 [2]: 0.028 ± 0.0123 µM
5 | COc1ccc(-c2nnc(OC)c3ccccc23)cc1 [compound 29, 1-methoxy-4-(4-methoxyphenyl) phthalazine] | 13.58 | –
6 | COc1cc2c(cc1OC)-c1cc3ccc(OC)c(OC)c3c[n+]1CC2 [compound 72] | 6.56 | –
7 | COc1cccc(C(=O)Nc2ccc(-c3nnc(-c4ccco4)o3)cc2)c1 [compound 35, N-{4-[5-(2-furyl)-1,3,4-oxadiazol-2-yl]phenyl}-3-methoxybenzamide] | 11.40 | –
8 | CCOc1ccc(N(CC(=O)N2CCN(C)CC2)S(C)(=O)=O)cc1 [compound 50] | 8.23 | –
9 | CCc1nnc(NC(=O)c2sc3nc(C)cc(COC)c3c2N)s1 [compound 108, 3-amino-N-(5-ethyl-1,3,4-thiadiazol-2-yl)-4-(methoxymethyl)-6-methylthieno [2,3-b]pyridine-2-carboxamide] | 4.66 | –
10 | O=C(Nc1cccc(-c2cn3ccsc3n2)c1)c1ccccc1F [compound 20, 2-fluoro-N-(3-imidazo[2,1-b][1,3]thiazol-6-ylphenyl)benzamide] | 19.78 | –
11 | Cc1ccnc(NC(=O)c2ccc(NC(=O)c3ccco3)cc2)c1 [compound 14, N-(4-{[(4-methyl-2-pyridinyl)amino]carbonyl}phenyl)-2-furamide] | 24.47 | –
12 | COC(=O)c1ccccc1NC(=O)c1cccc(NC(=O)C(C)C)c1 [compound 52] | 8.03 | –
13 | COc1ccc(NC(=O)C2(c3ccccc3)CCCC2)cc1 [compound 126, N-(4-methoxyphenyl)-1-phenylcyclopentane-carboxamide] | 3.87 | –
14 | O=C(CCCN1C(=O)c2cccc3cccc(c23)C1=O)N1CCCCC1 [compound 71, 2-[4-oxo-4-(1-piperidinyl)butyl]-1H-benzo[de]isoquinoline-1,3(2H)-dione] | 6.67 | –
15 | O=C(Nc1nc2c(s1)C(=O)CCC2)c1ccccc1Cl [compound 24, 2-chloro-N-(7-oxo-4,5,6,7-tetrahydro-1,3-benzothiazol-2-yl)benzamide] | 16.16 | –
16 | COc1ccc(-c2nnc(SCc3csc(C)n3)o2)cc1OC [compound 142, 2-(3,4-dimethoxyphenyl)-5-{[(2-methyl-1,3-thiazol-4-yl)methyl]thio}-1,3,4-oxadiazole] | 3.09 | –

Row | Compound | Avg Normalized % maximal activity (PfENT1) [%] | further results
17 | O=C(Nc1sc2c(c1CNC1CCCCC1)CCCC2)c1ccccc1 [compound 148, N-{3-[(cyclohexylamino)methyl]-4,5,6,7-tetrahydro-1-benzothien-2-yl} benzamide] | 2.74 | –
18 | Cc1nnc(SCc2csc(-c3ccc4c(c3)OCO4)n2)s1 [compound 46, 2-({[2-(1,3-benzodioxol-5-yl)-1,3-thiazol-4-yl]methyl}thio)-5-methyl-1,3,4-thiadiazole] | 8.94 | –
19 | CCOCc1nnc(NC(=O)c2ccc(OC)cc2)s1 [compound 47] | 8.66 | –
20 | CC(C)[C@@H]1CC[C@@H](C)CC1=O [compound 129] | 3.73 | –
21 | CC(=O)c1ccc(NC(=O)CSc2nc3cc(C)ccc3[nH]2)cc1 [compound 147, N-(4-acetylphenyl)-2-[(5-methyl-1H-benzimidazol-2-yl)thio]acetamide] | 2.77 | –
22 | Cc1ccc(C(=O)Nc2ccc(C(=O)N3CCCCC3)cc2)cc1 [compound 86, 4-methyl-N-[4-(1-piperidinylcarbonyl)phenyl]benzamide] | 5.63 | –
23 | Cc1ccccc1C(=O)Nc1ccc2c(C)cc(=O)oc2c1 [compound 28] | 13.98 | –
24 | Cn1c(=O)oc2cc(S(=O)(=O)Nc3ccccc3Br)ccc21 [compound 150, N-(2-bromophenyl)-3-methyl-2-oxo-2,3-dihydro-1,3-benzoxazole-6-sulfonamide] | 2.62 | –
25 | CCCCC(=O)Nc1ccc(NC(=O)c2cccs2)cc1OC [compound 156, N-[3-methoxy-4-(pentanoylamino)phenyl]-2-thiophenecarboxamide] | 2.17 | –
26 | COc1cccc(C(=O)Nc2cccc(-c3nnc(-c4ccco4)o3)c2)c1 [compound 9, N-{3-[5-(2-furyl)-1,3,4-oxadiazol-2-yl]phenyl}-3-methoxybenzamide] | 54.12 | –
27 | Cc1ccc2n1CCN(C(=O)c1ccc(S(=O)(=O)N(C)C)cc1)C2C (stereo not shown) [compound 136] | 3.43 | –
28 | CCOc1ccc(-c2noc(CCCC(=O)N3CCCCC3)n2)cc1OC [compound 25, 1-{4-[3-(4-ethoxy-3-methoxyphenyl)-1,2,4-oxadiazol-5-yl]butanoyl} piperidine] | 15.69 | –
29 | CCN(CC)C(=O)c1ccc(-c2ccc(N3CCOCC3)c3ccccc23)nn1 [compound 57] | 7.64 | –
30 | O=C(Nc1ccc(-c2nnc(-c3ccco3)o2)cc1)C1CCCCC1 [compound 110, N-{4-[5-(2-furyl)-1,3,4-oxadiazol-2-yl]phenyl} cyclohexane-carboxamide] | 4.61 | –
31 | O=C(O)c1ccc(S(=O)(=O)N(Cl)Cl)cc1 [compound 151] | 2.60 | –
32 | CCOC(=O)c1cc(NC(=O)c2ccccc2F)ccc1N1CCOCC1 [compound 40, ethyl 5-[(2-fluorobenzoyl)amino]-2-(4-morpholinyl)benzoate] | 10.29 | –
